Reference: ChEMBL document CHEMBL1201862, “PubChem BioAssay data set” (2004)
Activity calls are given as the source filed them.

Key:
Protein RecA = target: T1, Protein RecA (Mycobacterium tuberculosis, UniProt P9WHJ3); test: Fluorescence Cell-Free Homogeneous Dose Retest to Identify Inhibitors of RecA-Intein Splicing Activity. [Related pubchem assays (depositor defined):AID2097, AID2223, AID489010, AID492950]; type: functional
T1 sequence (P9WHJ3 whole entry): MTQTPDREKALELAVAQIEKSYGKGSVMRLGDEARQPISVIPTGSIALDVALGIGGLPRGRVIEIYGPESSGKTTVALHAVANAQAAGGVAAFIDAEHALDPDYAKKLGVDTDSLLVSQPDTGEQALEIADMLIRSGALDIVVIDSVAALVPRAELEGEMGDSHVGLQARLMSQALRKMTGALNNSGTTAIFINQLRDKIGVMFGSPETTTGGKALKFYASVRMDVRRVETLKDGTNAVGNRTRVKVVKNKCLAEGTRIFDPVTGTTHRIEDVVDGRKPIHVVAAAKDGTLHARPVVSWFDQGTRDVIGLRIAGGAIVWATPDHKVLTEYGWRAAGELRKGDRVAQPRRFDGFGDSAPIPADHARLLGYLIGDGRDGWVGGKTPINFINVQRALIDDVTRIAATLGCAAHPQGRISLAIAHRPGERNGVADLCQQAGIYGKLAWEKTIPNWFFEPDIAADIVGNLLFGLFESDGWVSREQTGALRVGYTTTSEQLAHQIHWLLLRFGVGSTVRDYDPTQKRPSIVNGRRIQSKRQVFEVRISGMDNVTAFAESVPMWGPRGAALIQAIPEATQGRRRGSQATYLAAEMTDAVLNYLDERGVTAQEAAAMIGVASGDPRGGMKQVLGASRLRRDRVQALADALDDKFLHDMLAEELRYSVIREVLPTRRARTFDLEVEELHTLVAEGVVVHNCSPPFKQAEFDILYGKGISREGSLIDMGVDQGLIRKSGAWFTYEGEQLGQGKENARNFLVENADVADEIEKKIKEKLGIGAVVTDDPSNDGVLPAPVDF

[1] = target: T2, Replicative DNA helicase DnaB (Mycobacterium tuberculosis, UniProt P9WMR3); test: DnaB intein splicing inhibitors, dose response, biochemical, cell-free fluorescence (AID 449749); type: functional
T2 sequence (P9WMR3 whole entry): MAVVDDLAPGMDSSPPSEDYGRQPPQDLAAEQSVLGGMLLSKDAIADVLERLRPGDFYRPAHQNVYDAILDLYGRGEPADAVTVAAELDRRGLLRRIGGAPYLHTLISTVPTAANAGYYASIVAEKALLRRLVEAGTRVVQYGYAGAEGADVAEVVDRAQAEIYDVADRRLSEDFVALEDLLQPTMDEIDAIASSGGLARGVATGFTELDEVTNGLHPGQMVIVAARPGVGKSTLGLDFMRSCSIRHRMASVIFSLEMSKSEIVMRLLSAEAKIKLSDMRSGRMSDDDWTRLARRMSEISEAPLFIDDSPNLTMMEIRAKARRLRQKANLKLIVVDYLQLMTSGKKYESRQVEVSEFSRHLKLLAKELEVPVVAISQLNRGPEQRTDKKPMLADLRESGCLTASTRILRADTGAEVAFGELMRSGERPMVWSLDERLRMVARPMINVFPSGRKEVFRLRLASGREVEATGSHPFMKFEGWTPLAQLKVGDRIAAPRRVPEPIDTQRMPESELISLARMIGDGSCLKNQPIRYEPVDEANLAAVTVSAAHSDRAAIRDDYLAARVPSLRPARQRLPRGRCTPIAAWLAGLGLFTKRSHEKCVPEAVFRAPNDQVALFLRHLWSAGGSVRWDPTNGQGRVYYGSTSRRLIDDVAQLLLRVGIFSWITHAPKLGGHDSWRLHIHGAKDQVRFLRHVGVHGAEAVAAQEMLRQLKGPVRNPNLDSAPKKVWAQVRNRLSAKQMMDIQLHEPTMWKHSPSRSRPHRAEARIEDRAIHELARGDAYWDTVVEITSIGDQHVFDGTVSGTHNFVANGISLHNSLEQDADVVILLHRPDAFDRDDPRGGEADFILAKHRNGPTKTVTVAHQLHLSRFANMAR

[2] = target: T3, Calpain-2 catalytic subunit (Sus scrofa, UniProt P43367); test: pig calpain II inhibitor potency, dose response, biochemical, fluorogenic peptide substrate (AID 1420); type: functional
T3 sequence (P43367 whole entry): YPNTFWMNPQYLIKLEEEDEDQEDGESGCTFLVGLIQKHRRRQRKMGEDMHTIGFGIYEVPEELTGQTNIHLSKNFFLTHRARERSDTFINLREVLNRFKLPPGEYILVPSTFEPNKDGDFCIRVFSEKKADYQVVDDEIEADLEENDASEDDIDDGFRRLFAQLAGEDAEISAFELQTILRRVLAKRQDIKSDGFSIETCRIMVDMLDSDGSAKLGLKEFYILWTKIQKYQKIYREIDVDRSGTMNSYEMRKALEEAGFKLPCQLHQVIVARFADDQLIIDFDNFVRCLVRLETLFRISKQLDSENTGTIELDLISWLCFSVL

[3] = target: T4, Corticotropin-releasing factor receptor 2/Corticotropin-releasing factor-binding protein (Homo sapiens, UniProt P24387+Q13324); test: Dose Response confirmation of uHTS hits for small molecule antagonists of the CRF-binding protein and CRF-R2 receptor complex.; type: functional; conditions: read-out: IC50_Mean
T4 sequence (Q13324 whole entry): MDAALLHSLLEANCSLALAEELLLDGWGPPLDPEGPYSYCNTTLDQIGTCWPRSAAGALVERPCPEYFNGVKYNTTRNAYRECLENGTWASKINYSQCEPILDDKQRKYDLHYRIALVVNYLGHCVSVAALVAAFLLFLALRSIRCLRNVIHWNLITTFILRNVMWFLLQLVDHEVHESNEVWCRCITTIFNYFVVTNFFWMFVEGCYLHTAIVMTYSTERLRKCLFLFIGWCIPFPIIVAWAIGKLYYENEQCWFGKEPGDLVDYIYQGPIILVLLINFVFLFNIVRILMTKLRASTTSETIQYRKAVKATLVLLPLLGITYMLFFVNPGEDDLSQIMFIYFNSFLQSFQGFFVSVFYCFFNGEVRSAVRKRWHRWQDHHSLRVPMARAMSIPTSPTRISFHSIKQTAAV
T4 sequence (P24387 whole entry): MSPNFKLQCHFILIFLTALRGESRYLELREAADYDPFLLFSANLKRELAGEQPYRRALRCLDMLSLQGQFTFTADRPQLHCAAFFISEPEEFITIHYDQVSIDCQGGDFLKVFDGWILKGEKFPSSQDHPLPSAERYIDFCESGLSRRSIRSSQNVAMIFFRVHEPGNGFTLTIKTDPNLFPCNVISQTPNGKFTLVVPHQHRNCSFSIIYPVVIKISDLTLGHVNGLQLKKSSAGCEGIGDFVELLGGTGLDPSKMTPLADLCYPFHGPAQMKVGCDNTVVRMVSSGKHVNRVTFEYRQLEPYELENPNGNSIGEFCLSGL

[4] = target: T4, Corticotropin-releasing factor receptor 2/Corticotropin-releasing factor-binding protein; test: activators of CRF receptor 2 with binding protein – uHTS hits, confirmation (AID 602473); type: functional; conditions: read-out: EC50_Mean
H9c2 = test: cells; type: functional, cell-based; conditions: Rattus norvegicus, H9c2, Myocardium
Cytochrome P450 2D6 = Cytochrome P450 2D6 (Homo sapiens, UniProt P10635);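 note: CYP2D6 member of a cytochrome P450 panel assay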
Chain of Cytochrome P450 2D6 (P10635 whole entry): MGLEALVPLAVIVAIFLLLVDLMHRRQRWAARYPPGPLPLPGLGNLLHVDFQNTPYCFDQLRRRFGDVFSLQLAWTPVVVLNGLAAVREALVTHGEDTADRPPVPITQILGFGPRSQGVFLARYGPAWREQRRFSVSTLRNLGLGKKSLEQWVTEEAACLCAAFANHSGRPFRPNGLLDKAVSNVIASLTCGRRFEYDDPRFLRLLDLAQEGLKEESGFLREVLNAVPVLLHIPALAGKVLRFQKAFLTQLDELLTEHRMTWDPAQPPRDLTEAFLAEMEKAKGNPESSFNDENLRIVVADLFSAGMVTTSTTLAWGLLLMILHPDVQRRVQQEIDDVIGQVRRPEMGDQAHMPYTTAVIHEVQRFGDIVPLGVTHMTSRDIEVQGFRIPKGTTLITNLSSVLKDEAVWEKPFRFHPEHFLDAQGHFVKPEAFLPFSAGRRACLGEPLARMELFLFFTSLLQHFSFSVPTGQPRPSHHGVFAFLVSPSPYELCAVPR

Cytochrome P450 1A2 = target: T5, Cytochrome P450 1A2 (Homo sapiens, UniProt P05177);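 note: PubChem cytochrome P450 panel assay, CYP1A2 panel member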
T5 sequence (P05177 whole entry): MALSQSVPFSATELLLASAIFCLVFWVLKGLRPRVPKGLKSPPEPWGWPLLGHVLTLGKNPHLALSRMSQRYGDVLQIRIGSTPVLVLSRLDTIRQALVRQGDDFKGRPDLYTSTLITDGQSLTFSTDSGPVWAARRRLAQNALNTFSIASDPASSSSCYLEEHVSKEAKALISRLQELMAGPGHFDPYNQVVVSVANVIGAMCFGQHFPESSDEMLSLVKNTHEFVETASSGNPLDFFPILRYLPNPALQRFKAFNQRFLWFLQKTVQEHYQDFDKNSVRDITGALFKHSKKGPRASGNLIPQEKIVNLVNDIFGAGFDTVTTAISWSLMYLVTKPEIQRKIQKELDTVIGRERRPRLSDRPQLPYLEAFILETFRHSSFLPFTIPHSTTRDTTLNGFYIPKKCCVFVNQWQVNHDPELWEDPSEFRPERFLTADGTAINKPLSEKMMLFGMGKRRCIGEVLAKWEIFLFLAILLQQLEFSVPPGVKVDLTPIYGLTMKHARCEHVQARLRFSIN

H4 = test: Luminescence Cell-Based Dose Response HTS to Identify Activators of 5'UTR Stem-Loop Driven Prion Protein mRNA Translation in H4 Neuroglioblastoma Cells. [Related pubchem assays: 1829 (Project Summary), 1814 (Primary HTS)]; type: functional; conditions: Homo sapiens

## COc1ccccc1/N=C1\C(Cl)=C(O)OC1OC(=O)c1ccco1 (stereo unspecified)
Protein RecA
  EC50: 13.4 µM (active)
[1]
  AC50: 12.5 µM (active)

## COC(=O)c1ccc(/C=N/NS(=O)(=O)c2cc(C)ccc2C)cc1
[2]
  IC50: 6.58 µM (not active)

## CCC(C)(C)NC(=O)c1ccc(S(=O)(=O)N2CCCCCC2)cc1
[2]
  IC50: 22.9 µM (not active)

## Cn1c(N)c(C(=O)COC(=O)C23CC4CC(CC(C4)C2)C3)c(=O)n(C)c1=O
[2]
  IC50: 2.26 µM (active)

## Cc1ccc(NC(=O)NN(C)c2c(Cl)c(Cl)nn2C)cc1
[2]
  IC50: > 50 µM (not active)

## Cc1cccc([N+]2=C3CCCCN3C(O)(c3cccs3)C2)c1 (stereo unspecified)
[3]
  IC50: > 47.1 µM (inactive)
[4]
  EC50: > 53 µM (inactive)

## CC1C(=O)C(C)C(c2cc(Br)ccc2O)NC1c1cc(Br)ccc1O (stereo unspecified)
[3]
  IC50: > 47.1 µM (inactive)
[4]
  EC50: > 53 µM (inactive)

## COc1cc(-c2cc3nc(NCCOc4ccccc4)ccn3n2)cc(OC)c1OC
H9c2
  IC50: > 79 µM (inactive)

## COCc1nc2ccccc2n1Cc1ccc(Br)cc1
[2]
  IC50: 8.1 µM (not active)

## CCOc1cc(C(c2c(C)n[nH]c2O)c2c(C)n[nH]c2O)ccc1OCc1ccc([N+](=O)[O-])cc1
Protein RecA
  EC50: 0.159 µM (active)
[1]
  AC50: 0.281 µM (active)

## O=C1CC/[N+](=C\c2ccc(Cl)cc2)[N-]1
Protein RecA
  EC50: 3.64 µM (active)
[1]
  AC50: 150 µM (active)

## CCO/C(O)=C1/C(C)=NC(SCC(=O)OC)=C(C#N)C1c1ccc(C(=O)OC)cc1 (stereo unspecified)
[3]
  IC50: < 0.368 µM (active)
[4]
  EC50: > 53 µM (inactive)

## CN(c1ccccc1)c1ccc([N+](=O)[O-])c2nonc12
Protein RecA
  EC50: 5.22 µM (active)
[1]
  AC50: 74.7 µM (active)

## O=C1CCc2nc3ccccc3c(=O)n2N1
[3]
  IC50: > 47.1 µM (inactive)
[4]
  EC50: > 53 µM (inactive)

## COc1ccc(-c2cc(CNC(=O)CCl)on2)cc1
Protein RecA
  EC50: 17.7 µM (active)
[1]
  AC50: 262 µM (active)

## CCNc1nc(NC(C)CC)nc(Oc2ccc(OCC)nn2)n1 (stereo unspecified)
[3]
  IC50: > 47.1 µM (inactive)
[4]
  EC50: > 53 µM (inactive)

## COc1ccc(/C=C2/C(=O)N(Cc3ccccc3)N=C2C)cc1
Protein RecA
  EC50: 1.91 µM (active)
[1]
  AC50: 4.12 µM (active)

## Cc1sc2nc(CSCC(=O)N(CCC#N)c3ccccc3F)nc(O)c2c1C
H9c2
  IC50: > 79 µM (inactive)

## CCOC(=O)C1=NN(C(=O)c2ccco2)C2(CC2)C1
H9c2
  IC50: > 79 µM (inactive)

## COc1ccc(C(=O)ON=C(N)Cc2ccc(Cl)c(Cl)c2)cc1OC
[3]
  IC50: 7.41 µM (active)
[4]
  EC50: > 53 µM (inactive)

## CC(CCc1ccccc1)NC(=O)/C=C/c1ccc(F)cc1 (stereo unspecified)
[2]
  IC50: 27.6 µM (not active)

## O=C1CC(c2cccnc2)=NN1c1ccccc1
Protein RecA
  EC50: 13.9 µM (active)
[1]
  AC50: 3.7 µM (active)

## CN1CCN(CCc2nc3cc(NC(=O)c4ccco4)ccc3n2C)CC1
[2]
  IC50: > 50 µM (not active)

## O=C(CCn1nc(-c2ccccc2)ccc1=O)N1CCOCC1
[3]
  IC50: > 47.1 µM (inactive)
[4]
  EC50: > 53 µM (inactive)

## CCOC(=O)N1CCN(C(=O)CSc2nnc(CNC(=O)c3ccccc3F)o2)CC1
[3]
  IC50: > 47.1 µM (inactive)
[4]
  EC50: > 53 µM (inactive)

## Cc1ccc(S(=O)(=O)Nc2cc(O)nc(SCC(=O)Nc3cccc(C(F)(F)F)c3)n2)cc1
[3]
  IC50: > 47.1 µM (inactive)
[4]
  EC50: > 53 µM (inactive)

## CCCCOc1ccc(C(=O)N/C(=C\c2ccc(OC)cc2)C(=O)OCc2ccco2)cc1
H9c2
  IC50: > 79 µM (inactive)
Cytochrome P450 2D6
  AC50: 7.94 µM (inconclusive)
Cytochrome P450 1A2
  AC50: 14.1 µM (inconclusive)

## CCOc1ccc(NC(=NCc2ccc3c(c2)OCO3)SC2CC(=O)N(c3ccccc3)C2=O)cc1 (stereo unspecified)
[2]
  IC50: > 50 µM (not active)

## CCc1ccc(NC(=O)c2ccccc2NC(=O)C2CCCO2)cc1 (stereo unspecified)
H4
  EC50: 2.64 µM (active)

## O=C(OCc1nnn(Cc2ccccc2)c1-c1c(COC(=O)c2ccccc2)nnn1Cc1ccccc1)c1ccccc1
[2]
  IC50: 2.52 µM (not active)

## CC(C)c1ccc(C(=O)NC(=S)NCc2cccnc2)cc1
[2]
  IC50: 27 µM (not active)

## COCc1c(C(=O)Nc2ccc3nc(N4CCOCC4)sc3c2)oc2ccccc12
H9c2
  IC50: > 79 µM (inactive)

## O=[N+]([O-])c1cc(-c2nnc(O)c3ccccc23)ccc1NCCO
H9c2
  IC50: 16.6 µM (active)
